We go through 17 molecules from patent US9181233B2, “Inhibitors of glutaminyl cyclase” (PROBIODRUG AG, priority 2010, dated 2015).

This assay has as its target hQC (Homo sapiens (Human), UniProt Q16769). In words: QC inhibitor assay (hQC inhibition, IC50 and Ki determination). Type of assay: biochemical. Conditions: for Ki: competitive inhibition fit. The procedure:
All measurements were performed with a BioAssay Reader HTS-7000Plus for microplates (Perkin Elmer) at 30° C. QC activity was evaluated fluorometrically using H-Gln-βNA. The samples consisted of 0.2 mM fluorogenic substrate, 0.25 U pyroglutamyl aminopeptidase (Unizyme, Hørsholm, Denmark) in 0.2 M Tris/HCl, pH 8.0 containing 20 mM EDTA and an appropriately diluted aliquot of QC in a final volume of 250 μl. Excitation/emission wavelengths were 320/410 nm. The assay reactions were initiated by addition of glutaminyl cyclase. QC activity was determined from a standard curve of β-naphthylamine under assay conditions. One unit is defined as the amount of QC catalyzing the formation of 1 μmol pGlu-βNA from H-Gln-βNA per minute under the described conditions.
In a second fluorometric assay, QC was activity determined using H-Gln-AMC as substrate. Reactions were carried out at 30° C. utilizing the NOVOStar reader for microplates (BMG labtechnologies). The samples consisted of varying concentrations of the fluorogenic substrate, 0.1 U pyroglutamyl aminopeptidase (Qiagen) in 0.05 M Tris/HCl, pH 8.0 containing 5 mM EDTA and an appropriately diluted aliquot of QC in a final volume of 250 μl. Excitation/emission wavelengths were 380/460 nm. The assay reactions were initiated by addition of glutaminyl cyclase. QC activity was determined from a standard curve of 7-amino-4-methylcoumarin under assay conditions. The kinetic data were evaluated using GraFit software.
This novel assay was used to determine the kinetic parameters for most of the QC substrates. […] Samples consisted of the respective QC substrate, 0.3 mM NADH, 14 mM α-Ketoglutaric acid and 30 U/ml glutamate dehydrogenase in a final volume of 250 μl. Reactions were started by addition of QC and perused by monitoring of the decrease in absorbance at 340 nm for 8-15 min.
The initial velocities were evaluated and the enzymatic activity was determined from a standard curve of ammonia under assay conditions. All samples were measured at 30° C., using either the […]luor Plus or the Sunrise (both from TECAN) reader for microplates. Kinetic data was evaluated using GraFit software.
For inhibitor testing, the sample composition was the same as described above, except of the putative inhibitory compound added. For a rapid test of QC-inhibition, samples contained 4 mM of the respective inhibitor and a substrate concentration at 1 KM. For detailed investigations of the inhibition and determination of Ki-values, influence of the inhibitor on the auxiliary enzymes was investigated first. […] The inhibitory constant was evaluated by fitting the set of progress curves to the general equation for competitive inhibition using GraFit software.

Sequence of hQC (Q16769 29-361): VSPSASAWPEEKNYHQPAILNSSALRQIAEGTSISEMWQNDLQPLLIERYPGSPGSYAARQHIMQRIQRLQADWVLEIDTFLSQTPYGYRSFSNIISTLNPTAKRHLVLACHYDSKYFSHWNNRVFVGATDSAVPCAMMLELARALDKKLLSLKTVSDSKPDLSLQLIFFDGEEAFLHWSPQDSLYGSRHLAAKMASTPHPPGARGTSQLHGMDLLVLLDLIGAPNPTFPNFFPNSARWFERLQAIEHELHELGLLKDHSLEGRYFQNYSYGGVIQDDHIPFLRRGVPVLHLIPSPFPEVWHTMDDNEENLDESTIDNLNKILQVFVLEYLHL

The molecule `CSc1ccc(CCc2nnc(-c3ccc4[nH]cnc4c3)s2)cc1` [Example 50, 5-(5-(4-(Methylthio)phenethyl)-1,3,4-thiadiazol-2-yl)-1H-benzo[d]imidazole] returned an IC50 of 0.76 µM and an inhibition constant Ki of 0.08 µM.

With `c1ccc(SCc2nnc(-c3ccc4[nH]cnc4c3)s2)cc1` [Example 65, 5-(5-((Phenylthio)methyl)-1,3,4-thiadiazol-2-yl)-1H-benzo[d]imidazole], the half-maximal inhibitory concentration (IC50) came to 0.53 µM and the affinity corresponds to a Ki of 0.12 µM.

In the case of `COc1ccc(Cn2cnnc2-c2ccc3[nH]cnc3c2)cc1Cl` [Example 24, 5-(4-(3-Chloro-4-methoxybenzyl)-4H-1,2,4-triazol-3-yl)-1H-benzo[d]imidazole], 0.85 µM corresponded to half-maximal inhibition (IC50) and the affinity, expressed as Ki, was 0.23 µM.

In turn, `COc1ccc(CCc2nnc(-c3ccc4[nH]cnc4c3)s2)cc1Cl` [Example 52, 5-(5-(3-Chloro-4-methoxyphenethyl)-1,3,4-thiadiazol-2-yl)-1H-benzo[d]imidazole] gave an IC50 of 0.68 µM and an inhibitory constant (Ki) of 0.05 µM.

Turning to `c1ccc(Oc2ccc(Cn3cnnc3-c3ccc4[nH]cnc4c3)cc2)cc1` [Example 10, 5-(4-(4-phenoxybenzyl)-4H-1,2,4-triazol-3-yl)-1H-benzo[d]imidazole], the concentration for half-maximal inhibition (IC50) turned out to be 0.48 µM and the inhibition constant (Ki) is 0.08 µM.

In turn, `Fc1cccc(CCc2nnc(-c3ccc4[nH]cnc4c3)s2)c1` [Example 59, 5-(5-(3-fluorophenethyl)-1,3,4-thiadiazol-2-yl)-1H-benzo[d]imidazole] returned a half-inhibitory concentration (IC50) of 0.56 µM and a Ki of 0.12 µM.

On to `Fc1ccc(CCc2nnc(-c3ccc4[nH]cnc4c3)s2)cc1F` [Example 58, 5-(5-(3,4-Difluorophenethyl)-1,3,4-thiadiazol-2-yl)-1H-benzo[d]imidazole], for which it took 0.72 µM to reach half-maximal inhibition (IC50) and the affinity, expressed as Ki, was 0.14 µM.

Regarding `Clc1cccc(Cn2cnnc2-c2ccc3[nH]cnc3c2)c1Cl` [Example 22, 5-(4-(2,3-Dichlorobenzyl)-4H-1,2,4-triazol-3-yl)-1H-benzo[d]imidazole], the IC50 was 0.52 µM and the affinity, expressed as Ki, was 0.12 µM.

`COc1ccc(CCc2nnc(-c3ccc4[nH]cnc4c3)o2)cc1Cl` [Example 39, 5-(5-(3-Chloro-4-methoxyphenethyl)-1,3,4-oxadiazol-2-yl)-1H-benzo[d]imidazole] had a concentration for half-maximal inhibition (IC50) of 0.8 µM and a Ki of 0.13 µM.

Molecule `COc1cccc(CCc2nnc(-c3ccc4[nH]cnc4c3)s2)c1Cl` [Example 63, 5-(5-(2-Chloro-3-methoxyphenethyl)-1,3,4-thiadiazol-2-yl)-1H-benzo[d]imidazole] came in with a half-maximal inhibitory concentration (IC50) of 0.22 µM and a Ki of 0.1 µM.

`COc1cc(CCc2nnc(-c3ccc4[nH]cnc4c3)s2)cc(OC)c1OC` [Example 55, 5-(5-(3,4,5-Trimethoxyphenethyl)-1,3,4-thiadiazol-2-yl)-1H-benzo[d]imidazole]: the IC50 turned out to be 0.49 µM and the Ki stood at 0.08 µM.

The molecule `c1ccc(SCn2cc(-c3ccc4[nH]cnc4c3)nn2)cc1` [Example 84, 5-(1-((Phenylthio)methyl)-1H-1,2,3-triazol-4-yl)-1H-benzo[d]imidazole] came in with a half-maximal inhibitory concentration (IC50) of 0.57 µM and a Ki of 0.12 µM.

The molecule `COc1ccc(Cn2cnnc2-c2ccc3[nH]cnc3c2)cc1` [Example 8, 5-(4-(4-Methoxybenzyl)-4H-1,2,4-triazol-3-yl)-1H-benzo[d]imidazole] gave a half-maximal inhibitory concentration (IC50) of 0.64 µM and a Ki of 0.11 µM.

For the molecule `COc1cccc(CCc2nnc(-c3ccc4[nH]cnc4c3)s2)c1` [Example 60, 5-(5-(3-Methoxyphenethyl)-1,3,4-thiadiazol-2-yl)-1H-benzo[d]imidazole], half-maximal inhibition (IC50) required 0.45 µM and the Ki was 0.04 µM.

For `COc1ccccc1CCc1nnc(-c2ccc3[nH]cnc3c2)s1` [Example 61, 5-(5-(2-Methoxyphenethyl)-1,3,4-thiadiazol-2-yl)-1H-benzo[d]imidazole], the 50% inhibitory concentration (IC50) was 0.76 µM and the affinity corresponds to a Ki of 0.17 µM.

For the molecule `Clc1ccccc1Cn1cnnc1-c1ccc2[nH]cnc2c1` [Example 9, 5-(4-(2-Chlorobenzyl)-4H-1,2,4-triazol-3-yl)-1H-benzo[d]imidazole], inhibition was half-maximal at 0.76 µM (IC50) and the affinity corresponds to a Ki of 0.2 µM.

On to `COc1ccc(OC)c(CCc2nnc(-c3ccc4[nH]cnc4c3)s2)c1` [Example 62, 5-(5-(2,5-Dimethoxyphenethyl)-1,3,4-thiadiazol-2-yl)-1H-benzo[d]imidazole], for which the IC50 was 0.48 µM and the inhibition constant Ki came out at 0.08 µM.
